Test results: paper PMC9154192 (PLoS Biology, 2022)
Read-outs that look alike come from different tables or passages of the source. Marks after values point to notes of the source that are not given here.

Assay type: in vivo, SD rats
Description: Toxicity studies were conducted at Biotoxtech (Korea) under review and approval from IACUC (170842, 180144, 170889) of Biotoxtech. All animals used in the toxicity test were purchased from OrientBio (Korea).
A subchronic toxicity study was performed for PP2S. Female and male rats were divided into a control group (0 mg/kg/day, n = 15), a low-dose group (167 mg/kg/day, n = 10), a medium-dose group (500 mg/kg/day, n = 10), and a high-dose group (1,500 mg/kg/day, n = 15), respectively. Thus, there were a total of 8 groups. The drug was administered by oral gavage at 10 mL/kg body weight daily for 4 weeks. Five animals each in the control and high-dose groups continued their treatments for 2 more weeks. Clinical symptoms were observed, and body weight was measured during the test period for a total of 6 weeks; 0.5% methyl cellulose 1,500 cP (Sigma, USA) in water for injection (JW Pharmaceutical, Korea) was used as a vehicle. Control animals were treated with only the same volume of the vehicle.
Organ weights were measured while conducting a 4-week repeated oral toxicity study for PP2S. For all animals, wet weight of the following organs were measured, and the relative organ weight ratio to the fasted body weight was calculated. Organs with left and right sides were weighed together. […] In addition, changes observed with statistical significance in females of the recovery group were minor changes, which were not observed in the main test group. They were not accompanied by other related changes. Thus, they were judged to have no toxicological significance.

[1] = female, 167 mg/kg, dosing period
[2] = female, 500 mg/kg, dosing period
[3] = female, 1,500 mg/kg, dosing period
[4] = female, 1,500 mg/kg, recovery period
[5] = male, 1,500 mg/kg, dosing period
[6] = male, 1,500 mg/kg, recovery period
[7] = up to 1,500 mg/kg/day oral, 4 weeks of administration and 2 weeks of recovery

Compound: CCCCOc1ccc2cc(CN3C(=O)CC[C@H]3C(=O)OC)c3cc(OC)c(OC)cc3c2c1 [PP2S, Methyl (S)-1-((3-butoxy-6,7-dimethoxyphenanthren-9-yl)methyl)-5-oxopyrrolidine-2-carboxylate]
- effect on organ weights (all administration groups, male and female, main test and recovery group): effect of the test substance was not recognized
- B.W. (mean) [1]: 218.0 g
- Mean absolute organ weight, Adrenal [1]: 0.0775 g
- Mean absolute organ weight, Heart [1]: 0.87 g
- Mean absolute organ weight, Kidney [1]: 1.77 g
- Mean absolute organ weight, Liver [1]: 6.63 g
- Mean absolute organ weight, Lung [1]: 1.09 g
- Mean absolute organ weight, Ovary [1]: 0.0898 g
- Mean absolute organ weight, Pituitary [1]: 0.0140 g
- Mean absolute organ weight, Spleen [1]: 0.50 g
- Mean absolute organ weight, Uterus [1]: 0.52 g
- Mean relative organ weight, Adrenal [1]: 0.0357 g/100g body weight
- Mean relative organ weight, Brain [1]: 0.83 g/100g body weight
- Mean relative organ weight, Heart [1]: 0.40 g/100g body weight
- Mean relative organ weight, Kidney [1]: 0.81 g/100g body weight
- Mean relative organ weight, Liver [1]: 3.05 g/100g body weight
- Mean relative organ weight, Lung [1]: 0.50 g/100g body weight
- Mean relative organ weight, Ovary [1]: 0.0410 g/100g body weight
- Mean relative organ weight, Pituitary [1]: 0.0065 g/100g body weight
- Mean relative organ weight, Spleen [1]: 0.23 g/100g body weight
- Mean relative organ weight, Uterus [1]: 0.24 g/100g body weight
- B.W. (mean) [2]: 224.1 g
- Mean absolute organ weight, Adrenal [2]: 0.0755 g
- Mean absolute organ weight, Heart [2]: 0.89 g
- Mean absolute organ weight, Kidney [2]: 1.70 g
- Mean absolute organ weight, Liver [2]: 6.67 g
- Mean absolute organ weight, Lung [2]: 1.10 g
- Mean absolute organ weight, Ovary [2]: 0.0846 g
- Mean absolute organ weight, Pituitary [2]: 0.0139 g
- Mean absolute organ weight, Spleen [2]: 0.47 g
- Mean absolute organ weight, Uterus [2]: 0.53 g
- Mean relative organ weight, Adrenal [2]: 0.0337 g/100g body weight
- Mean relative organ weight, Brain [2]: 0.78 g/100g body weight
- Mean relative organ weight, Heart [2]: 0.40 g/100g body weight
- Mean relative organ weight, Kidney [2]: 0.76 g/100g body weight
- Mean relative organ weight, Liver [2]: 2.97 g/100g body weight
- Mean relative organ weight, Lung [2]: 0.49 g/100g body weight
- Mean relative organ weight, Ovary [2]: 0.0381 g/100g body weight
- Mean relative organ weight, Pituitary [2]: 0.0062 g/100g body weight
- Mean relative organ weight, Spleen [2]: 0.21 g/100g body weight
- Mean relative organ weight, Uterus [2]: 0.24 g/100g body weight
- B.W. (mean) [3]: 217.3 g
- Mean absolute organ weight, Adrenal [3]: 0.0730 g
- Mean absolute organ weight, Brain [3]: 1.86 g
- Mean absolute organ weight, Heart [3]: 0.84 g
- Mean absolute organ weight, Kidney [3]: 1.72 g
- Mean absolute organ weight, Liver [3]: 6.49 g
- Mean absolute organ weight, Lung [3]: 1.11 g
- Mean absolute organ weight, Ovary [3]: 0.0874 g
- Mean absolute organ weight, Pituitary [3]: 0.0139 g
- Mean absolute organ weight, Spleen [3]: 0.48 g
- Mean absolute organ weight, Uterus [3]: 0.47 g
- Mean relative organ weight, Adrenal [3]: 0.0335 g/100g body weight
- Mean relative organ weight, Brain [3]: 0.84 g/100g body weight
- Mean relative organ weight, Heart [3]: 0.38 g/100g body weight
- Mean relative organ weight, Kidney [3]: 0.79 g/100g body weight
- Mean relative organ weight, Liver [3]: 2.98 g/100g body weight
- Mean relative organ weight, Lung [3]: 0.51 g/100g body weight
- Mean relative organ weight, Ovary [3]: 0.0402 g/100g body weight
- Mean relative organ weight, Pituitary [3]: 0.0064 g/100g body weight
- Mean relative organ weight, Spleen [3]: 0.22 g/100g body weight
- Mean relative organ weight, Uterus [3]: 0.22 g/100g body weight
- B.W. (mean) [4]: 248.7 g
- Mean absolute organ weight, Adrenal [4]: 0.0723 g
- Mean absolute organ weight, Brain [4]: 1.86 g
- Mean absolute organ weight, Heart [4]: 0.91 g
- Mean absolute organ weight, Kidney [4]: 1.73 g
- Mean absolute organ weight, Liver [4]: 7.01 * g
- Mean absolute organ weight, Lung [4]: 1.17 * g
- Mean absolute organ weight, Ovary [4]: 0.1012 g
- Mean absolute organ weight, Pituitary [4]: 0.0154 g
- Mean absolute organ weight, Spleen [4]: 0.54 g
- Mean absolute organ weight, Uterus [4]: 0.54 g
- Mean relative organ weight, Adrenal [4]: 0.0291 g/100g body weight
- Mean relative organ weight, Brain [4]: 0.75 g/100g body weight
- Mean relative organ weight, Heart [4]: 0.37 g/100g body weight
- Mean relative organ weight, Kidney [4]: 0.69 g/100g body weight
- Mean relative organ weight, Liver [4]: 2.81 g/100g body weight
- Mean relative organ weight, Lung [4]: 0.48 g/100g body weight
- Mean relative organ weight, Ovary [4]: 0.0407 g/100g body weight
- Mean relative organ weight, Pituitary [4]: 0.0062 g/100g body weight
- Mean relative organ weight, Spleen [4]: 0.22 g/100g body weight
- Mean relative organ weight, Uterus [4]: 0.22 g/100g body weight
- B.W. (mean) (male, 167 mg/kg, dosing period): 363.4 g
- Mean absolute organ weight, Adrenal (male, 167 mg/kg, dosing period): 0.0619 g
- Mean absolute organ weight, Brain (male, 167 mg/kg, dosing period): 1.79 g
- Mean absolute organ weight, Heart (male, 167 mg/kg, dosing period): 1.33 g
- Mean absolute organ weight, Kidney (male, 167 mg/kg, dosing period): 2.59 g
- Mean absolute organ weight, Liver (male, 167 mg/kg, dosing period): 10.38 g
- Mean absolute organ weight, Lung (male, 167 mg/kg, dosing period): 1.42 g
- Mean absolute organ weight, Pituitary (male, 167 mg/kg, dosing period): 0.0109 g
- Mean absolute organ weight, Prostate (male, 167 mg/kg, dosing period): 0.40 g
- Mean absolute organ weight, Spleen (male, 167 mg/kg, dosing period): 0.69 g
- Mean absolute organ weight, Testis (male, 167 mg/kg, dosing period): 3.22 g
- Mean relative organ weight, Adrenal (male, 167 mg/kg, dosing period): 0.0170 g/100g body weight
- Mean relative organ weight, Brain (male, 167 mg/kg, dosing period): 0.54 g/100g body weight
- Mean relative organ weight, Heart (male, 167 mg/kg, dosing period): 0.37 g/100g body weight
- Mean relative organ weight, Kidney (male, 167 mg/kg, dosing period): 0.72 g/100g body weight
- Mean relative organ weight, Liver (male, 167 mg/kg, dosing period): 2.86 g/100g body weight
- Mean relative organ weight, Lung (male, 167 mg/kg, dosing period): 0.39 g/100g body weight
- Mean relative organ weight, Pituitary (male, 167 mg/kg, dosing period): 0.0030 g/100g body weight
- Mean relative organ weight, Prostate (male, 167 mg/kg, dosing period): 0.11 g/100g body weight
- Mean relative organ weight, Spleen (male, 167 mg/kg, dosing period): 0.19 g/100g body weight
- Mean relative organ weight, Testis (male, 167 mg/kg, dosing period): 0.89 g/100g body weight
- B.W. (mean) (male, 500 mg/kg, dosing period): 363.5 g
- Mean absolute organ weight, Adrenal (male, 500 mg/kg, dosing period): 0.0622 g
- Mean absolute organ weight, Brain (male, 500 mg/kg, dosing period): 1.74 g
- Mean absolute organ weight, Heart (male, 500 mg/kg, dosing period): 1.31 g
- Mean absolute organ weight, Kidney (male, 500 mg/kg, dosing period): 2.67 g
- Mean absolute organ weight, Liver (male, 500 mg/kg, dosing period): 10.46 g
- Mean absolute organ weight, Lung (male, 500 mg/kg, dosing period): 1.41 g
- Mean absolute organ weight, Pituitary (male, 500 mg/kg, dosing period): 0.0119 g
- Mean absolute organ weight, Prostate (male, 500 mg/kg, dosing period): 0.49 g
- Mean absolute organ weight, Spleen (male, 500 mg/kg, dosing period): 0.69 g
- Mean absolute organ weight, Testis (male, 500 mg/kg, dosing period): 3.32 g
- Mean relative organ weight, Adrenal (male, 500 mg/kg, dosing period): 0.0171 g/100g body weight
- Mean relative organ weight, Brain (male, 500 mg/kg, dosing period): 0.55 g/100g body weight
- Mean relative organ weight, Heart (male, 500 mg/kg, dosing period): 0.36 g/100g body weight
- Mean relative organ weight, Kidney (male, 500 mg/kg, dosing period): 0.74 g/100g body weight
- Mean relative organ weight, Liver (male, 500 mg/kg, dosing period): 2.87 g/100g body weight
- Mean relative organ weight, Lung (male, 500 mg/kg, dosing period): 0.39 g/100g body weight
- Mean relative organ weight, Pituitary (male, 500 mg/kg, dosing period): 0.0033 g/100g body weight
- Mean relative organ weight, Prostate (male, 500 mg/kg, dosing period): 0.14 g/100g body weight
- Mean relative organ weight, Spleen (male, 500 mg/kg, dosing period): 0.19 g/100g body weight
- Mean relative organ weight, Testis (male, 500 mg/kg, dosing period): 0.91 g/100g body weight
- B.W. (mean) [5]: 366.0 g
- Mean absolute organ weight, Adrenal [5]: 0.0630 g
- Mean absolute organ weight, Brain [5]: 1.81 g
- Mean absolute organ weight, Heart [5]: 1.33 g
- Mean absolute organ weight, Kidney [5]: 2.63 g
- Mean absolute organ weight, Liver [5]: 10.79 g
- Mean absolute organ weight, Lung [5]: 1.45 g
- Mean absolute organ weight, Pituitary [5]: 0.0113 g
- Mean absolute organ weight, Prostate [5]: 0.45 g
- Mean absolute organ weight, Spleen [5]: 0.74 g
- Mean absolute organ weight, Testis [5]: 3.35 g
- Mean relative organ weight, Adrenal [5]: 0.0172 g/100g body weight
- Mean relative organ weight, Brain [5]: 0.54 g/100g body weight
- Mean relative organ weight, Heart [5]: 0.37 g/100g body weight
- Mean relative organ weight, Kidney [5]: 0.72 g/100g body weight
- Mean relative organ weight, Liver [5]: 2.94 g/100g body weight
- Mean relative organ weight, Lung [5]: 0.40 g/100g body weight
- Mean relative organ weight, Pituitary [5]: 0.0031 g/100g body weight
- Mean relative organ weight, Prostate [5]: 0.12 g/100g body weight
- Mean relative organ weight, Spleen [5]: 0.20 g/100g body weight
- Mean relative organ weight, Testis [5]: 0.92 g/100g body weight
- B.W. (mean) [6]: 419.4 g
- Mean absolute organ weight, Adrenal [6]: 0.0595 g
- Mean absolute organ weight, Heart [6]: 1.36 g
- Mean absolute organ weight, Kidney [6]: 2.73 g
- Mean absolute organ weight, Liver [6]: 11.62 g
- Mean absolute organ weight, Lung [6]: 1.61 g
- Mean absolute organ weight, Prostate [6]: 0.59 g
- Mean absolute organ weight, Spleen [6]: 0.72 g
- Mean absolute organ weight, Testis [6]: 3.48 g
- Mean relative organ weight, Adrenal [6]: 0.0140 g/100g body weight
- Mean relative organ weight, Brain [6]: 0.48 g/100g body weight
- Mean relative organ weight, Heart [6]: 0.33 g/100g body weight
- Mean relative organ weight, Kidney [6]: 0.65 g/100g body weight
- Mean relative organ weight, Liver [6]: 2.76 g/100g body weight
- Mean relative organ weight, Lung [6]: 0.38 g/100g body weight
- Mean relative organ weight, Pituitary [6]: 0.0028 g/100g body weight
- Mean relative organ weight, Prostate [6]: 0.14 g/100g body weight
- Mean relative organ weight, Spleen [6]: 0.17 g/100g body weight
- Mean relative organ weight, Testis [6]: 0.83 g/100g body weight
- organ weight/histopathological changes (up to 1,500 mg/kg/day oral, 4 weeks): no organ weight/histopathological changes were observed
- change in body weight compared to control group [7]: did not lead to a significant change
- death or abnormal clinical symptoms [7]: did not cause death or abnormal clinical symptoms
